System: 648629-189-R-J1-PDC spheroids with HUVEC/MSC, viability
Test: Anticancer human tumor 648629-189-R-J1-PDC patient-derived bladder carcinoma cell line growth inhibition [PI3K]
Conditions: for IC50: curve of first compound; for viability, T/C: stronger effect = lower value
In short: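 Tumor cells were combined with HUVEC and MSCs into spheroids, then dosed with PI3K-inhibitor combinations over half-log ranges capped near clinical Cmax or 10 microM.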

[1] = second compound 0.0316 µM, first compound 0.0316 µM
[2] = second compound 0.0316 µM, first compound 0.1 µM
[3] = second compound 0.0316 µM, first compound 0.316 µM
[4] = second compound 0.0316 µM, first compound 1 µM
[5] = second compound 0.0316 µM, first compound 3.16 µM
[6] = second compound 0.0316 µM, first compound 10 µM
[7] = second compound 0.1 µM, first compound 0.0316 µM
[8] = second compound 0.1 µM, first compound 0.1 µM
[9] = second compound 0.1 µM, first compound 0.316 µM
[10] = second compound 0.1 µM, first compound 1 µM
[11] = second compound 0.1 µM, first compound 3.16 µM
[12] = second compound 0.1 µM, first compound 10 µM
[13] = second compound 0.316 µM, first compound 0.0316 µM
[14] = second compound 0.316 µM, first compound 0.1 µM
[15] = second compound 0.316 µM, first compound 0.316 µM
[16] = second compound 0.316 µM, first compound 1 µM
[17] = second compound 0.316 µM, first compound 3.16 µM
[18] = second compound 0.316 µM, first compound 10 µM
[19] = second compound 1 µM, first compound 0.0316 µM
[20] = second compound 1 µM, first compound 0.1 µM
[21] = second compound 1 µM, first compound 0.316 µM
[22] = second compound 1 µM, first compound 1 µM
[23] = second compound 1 µM, first compound 3.16 µM
[24] = second compound 1 µM, first compound 10 µM
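Further: spheroids exposed to agents for seven days before reading.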
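Wherever viability, T/C is given: percent of vehicle control luminescence where 100% = DMSO treated spheroids.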

SMILES: Cn1ncc(Cl)c1-c1cc(C(=O)NC(CN)Cc2cccc(F)c2)sc1Cl (centres undefined) + CC(Nc1ncnc2nc[nH]c12)c1cc2cccc(Cl)c2c(=O)n1-c1ccccc1
- IC50 (second compound 0.0316 µM): 0.991 µM
- IC50 (second compound 0.1 µM): 0.769 µM
- IC50 (second compound 0.316 µM): 0.708 µM
- IC50 (second compound 1 µM): 0.709 µM
- IC50 (second compound 3.16 µM): 0.646 µM
- IC50 (second compound 10 µM): 0.479 µM
- viability, T/C [1]: 129%
- viability, T/C [2]: 90.4%
- viability, T/C [3]: 68.3%
- viability, T/C [4]: 45.8%
- viability, T/C [5]: 26.5%
- viability, T/C [6]: 10.4%
- viability, T/C [7]: 97.8%
- viability, T/C [8]: 87.2%
- viability, T/C [9]: 71.8%
- viability, T/C [10]: 39.9%
- viability, T/C [11]: 27.5%
- viability, T/C [12]: 9.37%
- viability, T/C [13]: 93.9%
- viability, T/C [14]: 103%
- viability, T/C [15]: 62.8%
- viability, T/C [16]: 42.6%
- viability, T/C [17]: 23.8%
- viability, T/C [18]: 7.95%
- viability, T/C [19]: 108%
- viability, T/C [20]: 92.2%
- viability, T/C [21]: 62.2%
- viability, T/C [22]: 42.9%
- viability, T/C [23]: 27.2%
- viability, T/C [24]: 8.92%
- viability, T/C (second compound 3.16 µM, first compound 0.0316 µM): 97.7%
- viability, T/C (second compound 3.16 µM, first compound 0.1 µM): 93.8%
- viability, T/C (second compound 3.16 µM, first compound 0.316 µM): 64.8%
- viability, T/C (second compound 3.16 µM, first compound 1 µM): 36.7%
- viability, T/C (second compound 3.16 µM, first compound 3.16 µM): 26.5%
- viability, T/C (second compound 3.16 µM, first compound 10 µM): 7.12%
- viability, T/C (second compound 10 µM, first compound 0.0316 µM): 99.7%
- viability, T/C (second compound 10 µM, first compound 0.1 µM): 78.2%
- viability, T/C (second compound 10 µM, first compound 0.316 µM): 56.9%
- viability, T/C (second compound 10 µM, first compound 1 µM): 37.2%
- viability, T/C (second compound 10 µM, first compound 3.16 µM): 21.3%
- viability, T/C (second compound 10 µM, first compound 10 µM): 6.29%

SMILES: C[C@@H](NC(=O)c1ncnc(N)c1Cl)c1ncc(C(=O)Nc2cc(C(F)(F)F)c(Cl)cn2)s1 + COc1c(OCCCN2CCOCC2)ccc2c3n(c(=NC(=O)c4cnc(N)nc4)nc12)CCN3
- IC50 (second compound 0.00316 µM): > 10 µM
- IC50 (second compound 0.01 µM): > 10 µM
- IC50 (second compound 0.0316 µM): > 10 µM
- IC50 (second compound 0.1 µM): > 10 µM
- IC50 (second compound 0.316 µM): < 0.0316 µM
- IC50 (second compound 1 µM): < 0.0316 µM
- viability, T/C (second compound 0.00316 µM, first compound 0.0316 µM): 105%
- viability, T/C (second compound 0.00316 µM, first compound 0.1 µM): 106%
- viability, T/C (second compound 0.00316 µM, first compound 0.316 µM): 103%
- viability, T/C (second compound 0.00316 µM, first compound 1 µM): 107%
- viability, T/C (second compound 0.00316 µM, first compound 3.16 µM): 112%
- viability, T/C (second compound 0.00316 µM, first compound 10 µM): 116%
- viability, T/C (second compound 0.01 µM, first compound 0.0316 µM): 99.9%
- viability, T/C (second compound 0.01 µM, first compound 0.1 µM): 111%
- viability, T/C (second compound 0.01 µM, first compound 0.316 µM): 90.4%
- viability, T/C (second compound 0.01 µM, first compound 1 µM): 101%
- viability, T/C (second compound 0.01 µM, first compound 3.16 µM): 128%
- viability, T/C (second compound 0.01 µM, first compound 10 µM): 113%
- viability, T/C [1]: 95.8%
- viability, T/C [2]: 93.8%
- viability, T/C [3]: 109%
- viability, T/C [4]: 94.9%
- viability, T/C [5]: 104%
- viability, T/C [6]: 90%
- viability, T/C [7]: 66.6%
- viability, T/C [8]: 70.3%
- viability, T/C [9]: 60.8%
- viability, T/C [10]: 65.2%
- viability, T/C [11]: 67.3%
- viability, T/C [12]: 68.9%
- viability, T/C [13]: 23.6%
- viability, T/C [14]: 21.7%
- viability, T/C [15]: 19.4%
- viability, T/C [16]: 27.9%
- viability, T/C [17]: 26.4%
- viability, T/C [18]: 25.8%
- viability, T/C [19]: 4.31%
- viability, T/C [20]: 4.06%
- viability, T/C [21]: 3.53%
- viability, T/C [22]: 4.37%
- viability, T/C [23]: 4.83%
- viability, T/C [24]: 6.55%

Reference: PubChem BioAssay AID1963974 (Molecular Pharmacology Branch, DTP, NCI, 2024)
